Patent EP1272854B1, “METHOD FOR DETECTING A HORMONE DISRUPTING ACTIVITY OF ENVIRONMENTAL POLLUTANTS” (Meulenberg, Petronella Mariette Maria, priority 2000, dated 2001)

How the values were obtained:
[1] = test system: SHBG (Sex Hormone Binding Globulin) from serum of pregnant volunteers; test: SHBG assay: competitive displacement of tritiated oestradiol from antibody-captured SHBG on microtiter plate; parameters: species or system human; conditions: for displacement of oestradiol / affinity to SHBG (in words): discussion of the SHBG assay results; for Activity (score for the displacement of tritiated oestradiol): displacement of 3H-oestradiol from SHBG, related to testosterone standard curve
From the text: Sub figure 1a: HPAA = Hypothalamus-Pituitary-Adrenal-Axis; CRH = Corticotrophin Releasing Hormone; ACTH = Adrenocorticotrophic Hormone; Adrenal = adrenal gland. Sub figure 1b: HPTeA = Hypothalamus-Pituitary-Testis-Axis; LHRH = Luteinizing Hormone Releasing Hormone; LH = Luteinizing Hormone. […] The values are the averages of 11 measurements. […] Plotted out is the bound fraction as a percentage of the total quantity of added ^3H-E2 against the concentration of the test compound.
The SHBG assay was developed for detecting a possible oestrogenic activity of xenobiotic substances. As main component use was made of SHBG from serum of pregnant volunteers in the third trimester of pregnancy. Additionally use was made of commercially available polyclonal anti-SHBG antibody (DAKO) to isolate SHBG from serum on a microtiter plate. […] As standard testosterone (Sigma-Aldrich B.V., Zwijndrecht, the Netherlands) was used in a concentration series.
All compounds to be analyzed are related to the testosterone standard curve. For the analysis of an oestrogenic effect various compounds were tested in the SHBG assay, including endogenous steroids, pharmaceutical substances, pesticides and industrial waste products (alkyl phenols). […]

SHBG (post partum serum) = conditions: competition with 3H-5-alpha-DHT; cited from earlier work
SHBG = conditions: cited from earlier work

Molecule | displacement of oestradiol / affinity to SHBG (in words) [1] | Activity (score for the displacement of tritiated oestradiol) [1] | binding to SHBG (SHBG (post partum serum)) | further results
C#CC1(O)CC[C@H]2[C@@H]3CCC4=CC(=O)CC[C@@H]4[C@H]3CC[C@@]21CC (mixture of isomers) [Norgestrel, reference compound] | high affinity | + + (strong displacement) | – | –
O=C(O)COc1ccc(Cl)cc1Cl [2.4-D] | – | + (moderate displacement) | – | –
C[C@H]1C[C@@H]2[C@H]([C@@H](O)C[C@@]3(C)[C@H]2CC[C@]3(O)C(=O)CO)[C@@]2(C)C=CC(=O)C=C12 [6-alpha-methylprednisolone, reference compound] | – | + (moderate displacement) | – | –
CNC(=O)O/N=C/C(C)(C)SC [Aldicarb] | ambiguous result | +/- | – | –
C[C@]12CC[C@@H](O)C[C@@H]1CC[C@@H]1[C@@H]2CC[C@]2(C)C(=O)CC[C@@H]12 [Andosterone, reference compound] | – | + (moderate displacement) | – | –
CCNc1nc(Cl)nc(NC(C)C)n1 [Atrazine] | no activity at all | - (no displacement) | not found | –
CC(C)(c1ccc(O)cc1)c1ccc(O)cc1 [Bisphenol-A] | remarkably strong effect | + + (strong displacement) | – | –
CC/C(=C(/CC)c1ccc(O)cc1)c1ccc(O)cc1 [DES, reference compound] | high affinity | + + (strong displacement) | – | –
C[C@]12CC[C@H](O)CC1=CC[C@@H]1[C@@H]2CC[C@]2(C)C(=O)CC[C@@H]12 [Dehydro-iso-andosterone, reference compound] | – | + (moderate displacement) | – | –
CN(C)S(=O)(=O)N(SC(F)(Cl)Cl)c1ccccc1 [Dichlofluanide] | – | + (moderate displacement) | – | –
O=C(O)CNCP(=O)(O)O [Glyphosate] | ambiguous result | +/- | – | –
CCCCC(O)(Cn1cncn1)c1ccc(Cl)cc1Cl (centres unmarked) [Hexaconazole] | ambiguous result | +/- | – | –
CCOC(=O)CC(SP(=S)(OC)OC)C(=O)OCC (centres unmarked) [Malathion] | – | + (moderate displacement) | – | –
C[C@]12CC[C@@H]3c4ccc(O)cc4CC[C@H]3[C@@H]1CC[C@@H]2O [Oestradiol] | – | – | – | affinity for SHBG (SHBG; association constant, see Dunn et al. 1981): 7e-10 M⁻¹
CC1(C)C(C=C(Cl)Cl)C1C(=O)OCc1cccc(Oc2ccccc2)c1 (centres unmarked) [Permethrin] | clear displacement | + + (strong displacement) | – | –
CCNc1nc(Cl)nc(NCC)n1 [Simazine] | ambiguous result | + /- | – | –
CC(C)(C)C(O)(CCc1ccc(Cl)cc1)Cn1cncn1 (centres unmarked) [Tebuconazole] | ambiguous result | +/- | – | –
C[C@]12CC[C@H]3[C@@H](CCC4=CC(=O)CC[C@@]43C)[C@@H]1CC[C@@H]2O [Testosterone] | – | + + (strong displacement) | – | Kd (SHBG; see Dunn et al. 1981, read-out: affinity for SHBG (converted)): 62.5 nM; affinity to SHBG relative to oestradiol (SHBG; testosterone versus oestradiol): approximately 3 times
C=CC1(C)OC(=O)N(c2cc(Cl)cc(Cl)c2)C1=O (centres unmarked) [Vinclozolin] | – | + (moderate displacement) | – | –
ClC1=C(Cl)[C@]2(Cl)[C@@H]3[C@@H]4C[C@@H]([C@H]5O[C@@H]45)[C@@H]3[C@@]1(Cl)C2(Cl)Cl [dieldrin] | – | – | not found | –
COc1ccc(C(c2ccc(OC)cc2)C(Cl)(Cl)Cl)cc1 [methoxychlor] | – | – | not found | –
Clc1ccc(C(c2ccccc2Cl)C(Cl)(Cl)Cl)cc1 (centres unmarked) [o,p'-DDT] | – | – | showed binding | –
ClC(Cl)=C(c1ccc(Cl)cc1)c1ccc(Cl)cc1 [p,p'-DDE] | – | – | not found | –
Clc1ccc(C(c2ccc(Cl)cc2)C(Cl)(Cl)Cl)cc1 [p,p'-DDT] | – | – | not found | –
Oc1c(Cl)c(Cl)c(Cl)c(Cl)c1Cl [pentachlorophenol] | – | – | showed binding | –
Nonylphenol | remarkably strong effect | + + (strong displacement) | showed binding | –
